Data set [1] addresses T1, fMet-Leu-Phe receptor (Homo sapiens, UniProt P21462).
T1 sequence (P21462 whole entry): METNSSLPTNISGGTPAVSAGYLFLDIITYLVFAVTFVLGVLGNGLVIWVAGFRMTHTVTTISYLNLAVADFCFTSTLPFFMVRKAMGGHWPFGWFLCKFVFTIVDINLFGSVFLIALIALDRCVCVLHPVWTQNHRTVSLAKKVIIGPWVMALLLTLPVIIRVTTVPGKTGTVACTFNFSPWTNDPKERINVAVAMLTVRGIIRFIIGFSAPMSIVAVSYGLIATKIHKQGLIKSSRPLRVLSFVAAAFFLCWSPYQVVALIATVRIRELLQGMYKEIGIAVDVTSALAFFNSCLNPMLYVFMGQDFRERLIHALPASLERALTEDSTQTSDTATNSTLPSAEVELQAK
As to the kind of experiment: Agonist activity at human FPR1 expressed in human HL60 cells assessed as induction of calcium mobilization measured every 5 secs for 240 secs by Fluo-4-AM dye based fluorometric method. It is filed as functional, cell-based. (Calcium assays in cells follow changes in intracellular calcium, usually with a dye or a luminescent sensor.)

Data set [2] addresses T2, N-formyl peptide receptor 2 (Homo sapiens, UniProt P25090).
T2 sequence (P25090 whole entry): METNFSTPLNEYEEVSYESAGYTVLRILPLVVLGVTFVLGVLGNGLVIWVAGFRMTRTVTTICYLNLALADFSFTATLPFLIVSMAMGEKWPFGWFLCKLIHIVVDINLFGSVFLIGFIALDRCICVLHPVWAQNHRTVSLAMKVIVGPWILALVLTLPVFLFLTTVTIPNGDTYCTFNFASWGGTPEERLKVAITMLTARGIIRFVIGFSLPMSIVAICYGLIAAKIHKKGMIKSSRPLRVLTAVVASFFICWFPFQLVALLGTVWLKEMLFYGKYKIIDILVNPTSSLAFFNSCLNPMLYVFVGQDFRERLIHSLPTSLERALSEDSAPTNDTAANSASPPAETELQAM
Briefly: Agonist activity at human FPR2 expressed in human HL60 cells assessed as induction of calcium mobilization measured every 5 secs for 240 secs by Fluo-4-AM dye based fluorometric method. It is filed as functional, cell-based.

The nature of data set [3]: Metabolic stability in rat liver microsomes assessed as parent compound remaining at 10 uM preincubated for 10 mins followed by NADPH addition measured after 30 mins by liquid chromatographic method. Type of data set: ADME, microsome. Particulars: 0.5 h; call rule not given here. Background: Liver microsomes are a subcellular fraction often used to study metabolism.
Data set [4] addresses T2, N-formyl peptide receptor 2. Briefly: Agonist activity at FPR2 in human neutrophils assessed as induction of calcium mobilization measured every 5 secs for 240 secs by Fluo-4-AM dye based fluorometric method. It is filed as functional.
A short description of data set [5]: Half life in rat liver microsomes at 10 uM preincubated for 10 mins followed by NADPH addition by liquid chromatographic method. Type of data set: ADME, microsome.
The target of data set [6] is T3, N-formyl peptide receptor 2 (Homo sapiens) (UniProt P25090).
T3 sequence (whole entry): T2 sequence (P25090 whole entry)
As to the kind of experiment: Agonist activity at human FPR2 expressed in human HL60 cells assessed as induction of calcium mobilization measured every 5 secs for 240 secs by Fluo-4-AM dye based fluorometric method relative to WKYMVM. Type of data set: functional, cell-based.

Data set [7] can be described thus: Intrinsic clearance in rat liver microsomes at 10 uM preincubated for 10 mins followed by NADPH addition by liquid chromatographic method. Type of data set: ADME, microsome.
Data set [8] has as its target T4, fMet-Leu-Phe receptor (Homo sapiens) (UniProt P21462).
T4 sequence (whole entry): T1 sequence (P21462 whole entry)
As to the kind of experiment: Agonist activity at human FPR1 expressed in human HL60 cells assessed as induction of calcium mobilization measured every 5 secs for 240 secs by Fluo-4-AM dye based fluorometric method relative to fMLF. Type of data set: functional, cell-based.

The target of data set [9] is T3, N-formyl peptide receptor 2 (Homo sapiens). Briefly: Agonist activity at FPR2 in human neutrophils assessed as induction of calcium mobilization measured every 5 secs for 240 secs by Fluo-4-AM dye based fluorometric method relative to fMLF.

Consider `O=C(Nc1ccccc1)N[C@H](Cc1c[nH]c2ccccc12)C(=O)NCC1(c2ccccc2)CC1`, for which the EC50 entry in data set [1], in data set [2] and in [4] was “Not Active” throughout. The Stability in [3] is recorded as 4%.
`Cc1ccc(C2(CNC(=O)[C@H](Cc3ccc(C#N)cc3)NC(=O)Nc3ccc(F)cc3)CC2)cc1F`: the EC50 (commonly the concentration at which the effect is half-maximal) in data set [1] (read-out: EC50) amounted to 5900 nM; in data set [2] (read-out: EC50) it was 3000 nM; in [4] (read-out: EC50) it was 1700 nM. For the same compound, in data set [3], the Stability is 39%.
Consider `N#Cc1ccc(C[C@@H](NC(=O)Nc2ccc([N+](=O)[O-])cc2)C(=O)NCC2(c3ccccc3)CC2)cc1`, for which the t1/2 in data set [5] worked out at 1.58 h. For the same compound, the Efficacy is 90% in [6], 75% in [8] and 150% in [9]. Also, the values for the EC50 in data set [1] (read-out: EC50), in data set [2] (read-out: EC50) and in [4] (read-out: EC50) were 4700 nM, 1500 nM and 4100 nM, respectively. Besides, the “Microsomal intrinsic clearance (CLint)” value in [7] was 7.29 µL/min/mg. Besides, the Stability in [3] is given as 38%.
For `N#Cc1ccc(C[C@@H](NC(=O)Nc2ccc(F)cc2)C(=O)NCC2(c3ccc(OC(F)(F)F)cc3)CC2)cc1`, the EC50 result in data set [1], in data set [2] and in data set [4] was “Not Active” each time. For the same compound, the Stability in data set [3] is 88%.
`COc1ccc(NC(=O)N[C@@H](Cc2ccc(C#N)cc2)C(=O)NCC2(c3ccc(C)c(F)c3)CC2)cc1`: the EC50 in data set [1] (read-out: EC50) worked out at 10300 nM; in [2] (read-out: EC50) it was 16300 nM; in data set [4] (read-out: EC50), 1700 nM. The Stability in data set [3] was determined as 8%.
On to `COc1ccc(NC(=O)N[C@H](Cc2ccc(C#N)cc2)C(=O)NCC2(c3ccc(F)c(Cl)c3)CC2)cc1`, for which the Efficacy worked out at 60% in [6], 100% in data set [8] and 115% in data set [9]. In addition, the EC50 stood at 630 nM in data set [1] (read-out: EC50), 1800 nM in data set [2] (read-out: EC50) and 730 nM in data set [4] (read-out: EC50). In data set [3], the Stability worked out at 5%.
In the case of `O=C(Nc1ccc(F)cc1)N[C@@H](Cc1c[nH]c2ccccc12)C(=O)NCC1(c2ccccc2)CC1`, the EC50 in data set [1] (read-out: EC50) was 18800 nM; in data set [2] (read-out: EC50) it was 2000 nM; in [4] it was “Not Active”. Besides, the Stability in data set [3] is reported as 4%.
As to `O=C(Nc1ccccc1)N[C@@H](Cc1c[nH]c2ccccc12)C(=O)NCC1(c2ccccc2)CC1`, the concentration giving a half-maximal response (EC50) was determined as 2400 nM in [1] (read-out: EC50), 6700 nM in data set [2] (read-out: EC50) and 1500 nM in data set [4] (read-out: EC50). The Stability in data set [3] is recorded as 5%.
As for `Cc1ccc(C2(CNC(=O)[C@@H](Cc3ccc(C#N)cc3)NC(=O)Nc3ccc(F)cc3)CC2)cc1F`, the t1/2 in data set [5] was found to be 0.983 h. The EC50 entry in [1], in data set [2] and in [4] was “Not Active” each time. For the same compound, in [7], the “Microsomal intrinsic clearance (CLint)” value amounted to 10.04 µL/min/mg. In data set [3], the Stability is listed as 37%.
`COc1ccc(NC(=O)N[C@@H](Cc2ccc(C#N)cc2)C(=O)NCC2(c3ccc(OC(F)(F)F)cc3)CC2)cc1`: the EC50 result in data set [1], in [2] and in [4] was “Not Active” each time. Moreover, the Stability in [3] is given as 51%.
For the compound `COc1ccc(NC(=O)N[C@@H](Cc2ccc(C#N)cc2)C(=O)NCC2(c3ccc(F)c(Cl)c3)CC2)cc1`, the Efficacy in [6] was found to be 60%; in [8] it was 115%; in data set [9], 155%. Besides, the EC50 in data set [1] (read-out: EC50) amounted to 450 nM; in data set [2] (read-out: EC50) it was 3400 nM; in [4] (read-out: EC50), 330 nM. The Stability in [3] is recorded as 10%.
Regarding `N#Cc1ccc(C[C@@H](NC(=O)Nc2ccc(F)cc2)C(=O)NCC2(c3ccc(F)c(Cl)c3)CC2)cc1`, in data set [5], the t1/2 turned out to be 0.783 h. Besides, the results for the Efficacy in data set [6], in data set [8] and in [9] were 90%, 55% and 95%, respectively. The EC50 in [1] (read-out: EC50) came out at 5400 nM; in [2] (read-out: EC50), 300 nM; in data set [4] (read-out: EC50), 1300 nM. Further, the “Microsomal intrinsic clearance (CLint)” value in data set [7] was 14.7 µL/min/mg. In addition, the Stability in [3] stood at 20%.
In the case of `O=C(Nc1ccc(F)cc1)N[C@H](Cc1c[nH]c2ccccc12)C(=O)NCC1(c2ccccc2)CC1`, the EC50 entry in data set [1], in data set [2] and in data set [4] was “Not Active” each time.
For `O=C(Nc1ccc([N+](=O)[O-])cc1)N[C@H](Cc1c[nH]c2ccccc12)C(=O)NCC1(c2ccccc2)CC1`, the Stability in data set [3] was found to be 15%.
Regarding `COc1ccc(NC(=O)N[C@H](Cc2c[nH]c3ccccc23)C(=O)NCC2(c3ccccc3)CC2)cc1`, the half-maximal effective concentration (EC50) result in data set [1] is “Not Active”; in data set [2] (read-out: EC50) it was 6500 nM; in data set [4], “Not Active”. Further, the Stability in data set [3] is given as 4%.
As to `N#Cc1ccc(C[C@H](NC(=O)Nc2ccc(F)cc2)C(=O)NCC2(c3ccc(OC(F)(F)F)cc3)CC2)cc1`, the EC50 result in [1], in data set [2] and in data set [4] was “Not Active” throughout. Moreover, the Stability in [3] is 80%.
`O=C(Nc1ccc([N+](=O)[O-])cc1)N[C@@H](Cc1cccnc1)C(=O)NCC1(c2ccccc2)CC1` returned a t1/2 in data set [5] of 1.83 h. For the same compound, the Efficacy in data set [6] came to 60%; in [8] it was 125%; in [9], 65%. The EC50 in data set [1] (read-out: EC50) amounted to 850 nM; in data set [2] (read-out: EC50), 6400 nM; in data set [4] (read-out: EC50), 730 nM. In data set [7], the “Microsomal intrinsic clearance (CLint)” value amounted to 6.3 µL/min/mg. The Stability in data set [3] came to 51%.
In the case of `COc1ccc(NC(=O)N[C@@H](Cc2c[nH]c3ccccc23)C(=O)NCC2(c3ccccc3)CC2)cc1`, the EC50 in [1] (read-out: EC50) was found to be 950 nM; in data set [2] (read-out: EC50) it was 110 nM; in [4] (read-out: EC50), 1400 nM. For the same compound, the Stability in data set [3] was found to be 3%.
Turning to `COc1ccc(NC(=O)N[C@H](Cc2ccc(C#N)cc2)C(=O)NCC2(c3ccc(OC(F)(F)F)cc3)CC2)cc1`, the EC50 entry in data set [1], in [2] and in data set [4] was “Not Active” each time. For the same compound, in data set [3], the Stability was 43%.
Turning to `COc1ccc(NC(=O)N[C@H](Cc2ccc(C#N)cc2)C(=O)NCC2(c3ccc(C)c(F)c3)CC2)cc1`, the EC50 entry in data set [1], in [2] and in data set [4] was “Not Active” each time. In addition, the Stability in [3] is 10%.

Source of the values: ChEMBL document CHEMBL4130539, “Novel ureidopropanamide based N-formyl peptide receptor 2 (FPR2) agonists with potential application for central nervous system disorders characterized by neuroinflammation” (Eur J Med Chem, 2017).
